Experiments:
Type in all cases: functional, cell-based
A-375 = test: Cytotoxicity against human A375 cells after 4 days by MTT assay; conditions: A-375, 96 h
Raji = test: Cytotoxicity against human Raji cells after 4 days by MTT assay; conditions: 96 h
MCF7 = test: Cytotoxicity against human MCF7 cells after 4 days by MTT assay; conditions: MCF7, 96 h
T47D = test: Cytotoxicity against human T47D cells after 4 days by MTT assay; conditions: 96 h
[1] = Cytotoxicity against human SKBR cells after 4 days by MTT assay; conditions: 96 h
MDA-MB-231 = test: Cytotoxicity against human MDA-MB-231 cells after 4 days by MTT assay; conditions: MDA-MB-231, 96 h

Compound `C/C1=C\CC(=O)/C=C/C=C\c2csc(n2)[C@@H](C)NC(=O)C[C@@](S)([C@@H](C)C(=O)O)CC1` has an EC50 (A-375) greater than 10000 nM, an EC50 (Raji) greater than 10000 nM and an EC50 (MCF7) greater than 10000 nM. For the same compound, the EC50 (T47D) was greater than 10000 nM, the EC50 [1] was greater than 10000 nM and the EC50 (MDA-MB-231) was greater than 10000 nM.
`C/C1=C\CC(=O)/C=C/C=C\c2csc(n2)[C@@H](C)NC(=O)C[C@@]2(CC1)SC(=O)[C@@H]2C` gave an EC50 (A-375) greater than 10000 nM, an EC50 (Raji) greater than 10000 nM and an EC50 (MCF7) of 8560 nM. It also gave an EC50 (T47D) greater than 10000 nM, an EC50 [1] of 7370 nM and an EC50 (MDA-MB-231) of 1950 nM.
With `C/C1=C\[C@@H](O)C(=O)/C=C/C=C\c2csc(n2)[C@@H](C)NC(=O)C[C@@]2(CC1)[S+]([O-])SC(=O)[C@]2(C)O` (stereo not given in full) [LEINAMYCIN] the EC50 (A-375) was 4.69 nM, the EC50 (Raji) was 6.29 nM and the EC50 (MCF7) was 42.4 nM. For the same compound, the EC50 (T47D) was 15.2 nM, the EC50 [1] was 52.3 nM and the EC50 (MDA-MB-231) was 8.99 nM.
In the case of `C/C1=C\CC(=O)/C=C/C=C\c2csc(n2)[C@@H](C)NC(=O)C[C@]2(CC1)[C@@H](C)C(=O)S[S+]2[O-]` (stereo not given in full), the EC50 (A-375) is reported as 12.5 nM, the EC50 (Raji) is reported as 8.21 nM and the EC50 (MCF7) is reported as 275 nM. It also gave an EC50 (T47D) of 196 nM, an EC50 [1] of 251 nM and an EC50 (MDA-MB-231) of 71.4 nM.
Compound `C/C1=C\CC(=O)/C=C/C=C\c2csc(n2)[C@@H](C)NC(=O)C[C@@]2(CC1)SSC(=O)[C@@H]2C` has an EC50 (A-375) greater than 10000 nM, an EC50 (Raji) of 48.7 nM and an EC50 (MCF7) greater than 10000 nM. It also gave an EC50 (T47D) greater than 10000 nM, an EC50 [1] greater than 10000 nM and an EC50 (MDA-MB-231) greater than 10000 nM.

Reference: ChEMBL document CHEMBL3621171, “Synthesis and evaluation of 8,4'-dideshydroxy-leinamycin revealing new insights into the structure-activity relationship of the anticancer natural product leinamycin” (Bioorg Med Chem Lett, 2015)
